In ChEMBL document CHEMBL3885861, “Open TG-GATES”:

Species on record: Rattus norvegicus
Assay: Open TG-GATES - Regimen: Daily Repeat
Assay type: toxicity, organism-based, Sprague-Dawley
Design: regimen Daily Repeat, gender Male, age 6 weeks
Settings: in vivo, po, 1000 mg/kg, route gavage, dose level High; for APTT / Bas / Eos / Fbg / Hb / Ht / Lym / MCH / MCHC / MCV / Mono / Neu / PT / Plat / RBC / Ret / WBC: tissue Blood; for KIDNEY_L / KIDNEY_R / KIDNEY_TOTAL: tissue Kidney; for LIVER: tissue Liver; for A/G / ALP / ALT / AST / BUN / CRE / Ca / Cl / DBIL / GLC / IP / K / LDH / Na / PL / RALB / TBIL / TC / TG / TP / gamma-GTP: tissue Plasma

**Q.** Which results are given for `CCOC(=O)CCC(=O)O[C@H]1[C@H](O[C@@H]2[C@@H](C)[C@H](O[C@H]3C[C@@](C)(OC)[C@@H](O)[C@H](C)O3)[C@@H](C)C(=O)O[C@H](CC)[C@@](C)(O)[C@H](O)[C@@H](C)C(=O)[C@H](C)C[C@@]2(C)O)O[C@H](C)C[C@@H]1N(C)C` [ERYTHROMYCIN ETHYLSUCCINATE]?
**A.** TERMINAL_BW (72 h, time 3 day): 226.1 g; APTT (72 h, time 3 day): 20.6 s; Bas (72 h, time 3 day): 0%; Eos (72 h, time 3 day): 1%; Fbg (72 h, time 3 day): 325 mg/dL; Hb (72 h, time 3 day): 14.4 g/dL; Ht (72 h, time 3 day): 41.8%; Lym (72 h, time 3 day): 86.4%; MCH (72 h, time 3 day): 21.2 pg; MCHC (72 h, time 3 day): 34.4%; MCV (72 h, time 3 day): 61.6 fL; Mono (72 h, time 3 day): 3%; Neu (72 h, time 3 day): 8.6%; PT (72 h, time 3 day): 15.7 s; Plat (72 h, time 3 day): 125 x10_4/uL; RBC (72 h, time 3 day): 679.6 x10_4/ul; Ret (72 h, time 3 day): 3.4%; WBC (72 h, time 3 day): 68.6 x10_2/uL; KIDNEY_L (72 h, time 3 day): 1 g; KIDNEY_R (72 h, time 3 day): 1 g; KIDNEY_TOTAL (72 h, time 3 day): 2 g; LIVER (72 h, time 3 day): 9.5 g; A/G (72 h, time 3 day): 1.2; ALP (72 h, time 3 day): 1860.4 IU/L; ALT (72 h, time 3 day): 38.2 IU/L; AST (72 h, time 3 day): 67.4 IU/L; BUN (72 h, time 3 day): 17 mg/dL; CRE (72 h, time 3 day): 0.2 mg/dL; Ca (72 h, time 3 day): 10.5 mg/dL; Cl (72 h, time 3 day): 108.4 meq/L; DBIL (72 h, time 3 day): 0.002 mg/dL; GLC (72 h, time 3 day): 178 mg/dL; IP (72 h, time 3 day): 7.2 mg/dL; K (72 h, time 3 day): 4.2 meq/L; LDH (72 h, time 3 day): 198.2 IU/L; Na (72 h, time 3 day): 141.8 meq/L; PL (72 h, time 3 day): 155.6 mg/dL; RALB (72 h, time 3 day): 3.1 g/dL; TBIL (72 h, time 3 day): 0.032 mg/dL; TC (72 h, time 3 day): 95.2 mg/dL; TG (72 h, time 3 day): 58.4 mg/dL; TP (72 h, time 3 day): 5.7 g/dL; gamma-GTP (72 h, time 3 day): 1.4 IU/L; TERMINAL_BW ([…], time 7 day): 250.4 g; TERMINAL_BW ([…], time 14 day): 298.7 g; TERMINAL_BW ([…], time 28 day): 358.6 g; APTT ([…], time 7 day): 21.4 s; Bas ([…], time 7 day): 0%; Eos ([…], time 7 day): 1%; Fbg ([…], time 7 day): 338.6 mg/dL; Hb ([…], time 7 day): 13.6 g/dL; Ht ([…], time 7 day): 40.3%; Lym ([…], time 7 day): 81.6%; MCH ([…], time 7 day): 20.5 pg; MCHC ([…], time 7 day): 33.9%; MCV ([…], time 7 day): 60.4 fL; Mono ([…], time 7 day): 2.2%; Neu ([…], time 7 day): 14%; PT ([…], time 7 day): 16.6 s; Plat ([…], time 7 day): 112.5 x10_4/uL; RBC ([…], time 7 day): 666.4 x10_4/ul; Ret ([…], time 7 day): 3.8%; WBC ([…], time 7 day): 93.3 x10_2/uL; APTT ([…], time 14 day): 20.5 s; Bas ([…], time 14 day): 0%; Eos ([…], time 14 day): 0.8%; Fbg ([…], time 14 day): 327.6 mg/dL; Hb ([…], time 14 day): 14.2 g/dL; Ht ([…], time 14 day): 40.6%; Lym ([…], time 14 day): 83%; MCH ([…], time 14 day): 20.5 pg; MCHC ([…], time 14 day): 34.8%; MCV ([…], time 14 day): 59 fL; Mono ([…], time 14 day): 3.2%; Neu ([…], time 14 day): 11.4%; PT ([…], time 14 day): 16.2 s; Plat ([…], time 14 day): 107.4 x10_4/uL; RBC ([…], time 14 day): 690 x10_4/ul; Ret ([…], time 14 day): 4.6%; WBC ([…], time 14 day): 91.9 x10_2/uL; APTT ([…], time 28 day): 24.9 s; Bas ([…], time 28 day): 0%; Eos ([…], time 28 day): 1%; Fbg ([…], time 28 day): 340.4 mg/dL; Hb ([…], time 28 day): 15.2 g/dL; Ht ([…], time 28 day): 43.7%; Lym ([…], time 28 day): 82.4%; MCH ([…], time 28 day): 18.9 pg; MCHC ([…], time 28 day): 34.7%; MCV ([…], time 28 day): 54.3 fL; Mono ([…], time 28 day): 2.2%; Neu ([…], time 28 day): 12.6%; PT ([…], time 28 day): 16.3 s; Plat ([…], time 28 day): 102.9 x10_4/uL; RBC ([…], time 28 day): 804.4 x10_4/ul; Ret ([…], time 28 day): 2.3%; WBC ([…], time 28 day): 79.8 x10_2/uL; KIDNEY_L ([…], time 7 day): 1.1 g; KIDNEY_R ([…], time 7 day): 1.1 g; KIDNEY_TOTAL ([…], time 7 day): 2.2 g; KIDNEY_L ([…], time 14 day): 1.2 g; KIDNEY_R ([…], time 14 day): 1.2 g; KIDNEY_TOTAL ([…], time 14 day): 2.4 g; KIDNEY_L ([…], time 28 day): 1.4 g; KIDNEY_R ([…], time 28 day): 1.4 g; KIDNEY_TOTAL ([…], time 28 day): 2.8 g; LIVER ([…], time 7 day): 10.1 g; LIVER ([…], time 14 day): 12.3 g; LIVER ([…], time 28 day): 13.8 g; A/G ([…], time 7 day): 1.1; ALP ([…], time 7 day): 1998.2 IU/L; ALT ([…], time 7 day): 35.2 IU/L; AST ([…], time 7 day): 71.8 IU/L; BUN ([…], time 7 day): 18.2 mg/dL; CRE ([…], time 7 day): 0.2 mg/dL; Ca ([…], time 7 day): 10.5 mg/dL; Cl ([…], time 7 day): 108.2 meq/L; DBIL ([…], time 7 day): 0 mg/dL; GLC ([…], time 7 day): 188.6 mg/dL; IP ([…], time 7 day): 7.4 mg/dL; K ([…], time 7 day): 4.1 meq/L; LDH ([…], time 7 day): 156.6 IU/L; Na ([…], time 7 day): 141.8 meq/L; PL ([…], time 7 day): 155 mg/dL; RALB ([…], time 7 day): 2.8 g/dL; TBIL ([…], time 7 day): 0.01 mg/dL; TC ([…], time 7 day): 84.8 mg/dL; TG ([…], time 7 day): 97.6 mg/dL; TP ([…], time 7 day): 5.4 g/dL; gamma-GTP ([…], time 7 day): 1.6 IU/L; A/G ([…], time 14 day): 1.1; ALP ([…], time 14 day): 1716 IU/L; ALT ([…], time 14 day): 36 IU/L; AST ([…], time 14 day): 68.8 IU/L; BUN ([…], time 14 day): 19.6 mg/dL; CRE ([…], time 14 day): 0.2 mg/dL; Ca ([…], time 14 day): 10.7 mg/dL; Cl ([…], time 14 day): 108.6 meq/L; DBIL ([…], time 14 day): 0 mg/dL; GLC ([…], time 14 day): 187 mg/dL; IP ([…], time 14 day): 6.6 mg/dL; K ([…], time 14 day): 4.4 meq/L; LDH ([…], time 14 day): 161 IU/L; Na ([…], time 14 day): 142 meq/L; PL ([…], time 14 day): 163.2 mg/dL; RALB ([…], time 14 day): 2.9 g/dL; TBIL ([…], time 14 day): 0.006 mg/dL; TC ([…], time 14 day): 88.8 mg/dL; TG ([…], time 14 day): 140.8 mg/dL; TP ([…], time 14 day): 5.6 g/dL; gamma-GTP ([…], time 14 day): 1.8 IU/L; A/G ([…], time 28 day): 1.1; ALP ([…], time 28 day): 1257.4 IU/L; ALT ([…], time 28 day): 37 IU/L; AST ([…], time 28 day): 67.6 IU/L; BUN ([…], time 28 day): 19.2 mg/dL; CRE ([…], time 28 day): 0.2 mg/dL; Ca ([…], time 28 day): 10.4 mg/dL; Cl ([…], time 28 day): 108.8 meq/L; DBIL ([…], time 28 day): 0.002 mg/dL; GLC ([…], time 28 day): 173 mg/dL; IP ([…], time 28 day): 6.9 mg/dL; K ([…], time 28 day): 4.1 meq/L; LDH ([…], time 28 day): 132.8 IU/L; Na ([…], time 28 day): 141.8 meq/L; PL ([…], time 28 day): 138 mg/dL; RALB ([…], time 28 day): 3 g/dL; TBIL ([…], time 28 day): 0.012 mg/dL; TC ([…], time 28 day): 75.2 mg/dL; TG ([…], time 28 day): 99.6 mg/dL; TP ([…], time 28 day): 5.7 g/dL; gamma-GTP ([…], time 28 day): 1.6 IU/L
